Results taken from patent US20220225639A1, “IMMUNE-STIMULATING COMPOSITIONS FOR AQUACULTURE SPECIES” (MIREXUS BIOTECHNOLOGIES INC., priority 2019, published 2022).

Tested on: rainbow trout gut cells (RT-gut)
Experiment: Uptake and intracellular stability of fluorescently labelled poly IC (fluorescent microscopy)
Format: cell-based
Conditions: 1 ug/ml, 20 degree treatment, 4 hours
Procedure: Per Example 7, low molecular weight poly:IC was labelled with a fluorescent dye, then left as “free” poly:IC or coupled with Cat-PhG (0.38) at a 1:1 (w/w) ratio. Free poly:IC or PhG coupled poly:IC was added to RT-gut cells at a concentration of 1 ug/ml and incubated at 4° C. or 20° C. for 4 hours. Cells were imaged via fluorescent microscopy, and average intracellular fluorescence intensity was measured from 5 randomly selected cells.
Low molecular weight poly IC was labelled with the Ulysis AlexaFluor 546 labelling kit (Invitrogen), then left as “free” poly IC or couple with cationic PhG (0.38) at a 1:1 (w/w) ratio. Free poly IC or PhG coupled poly IC was added to RT-gut cells at a concentration of 1 ug/ml and incubated at 4° C. or 20° C. for 4 hours. Cells were imaged via fluorescent microscopy, and average intracellular fluorescence intensity was measured from 5 randomly selected cells.

Substance: polyinosinic:polycytidylic acid [free poly IC]
- intracellular fluorescence: no fluorescence was detected
